Test results as given in the supplement of paper PMC11061612.

Legend:
Assay in all cases: combination Emax (second highest fraction inhibited in the dose matrix, 72 h); higher = more inhibition; extreme values may be limits of the assay
[1] = test system: RPMI-8402 (T-Lymphoblastic Leukemia)
In short: (§1)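 Bliss excess equals the observed combination effect minus the expected value EA + EB − EA·EB, where EA and EB are the effects of each agent alone. Combination Emax is the second-highest inhibition within the matrix. Inhibition was scaled from CellTiter-Glo 2.0 luminescence, with 0 set by vehicle wells and 1 by blank wells, after 72 hours of two-drug dosing of cells plated in 1536-well plates.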

[2] = test system: NCI-H2009 (Lung Adenocarcinoma)
In short: as §1

[3] = test system: COR-L105 (Lung Adenocarcinoma)
In short: as §1

[4] = test system: SBC-5 (Small Cell Lung Carcinoma)
In short: as §1

[5] = test system: NCI-H2023 (Non-Small Cell Lung Carcinoma)
In short: as §1

[6] = test system: RS4-11 (B-Lymphoblastic Leukemia)
In short: as §1

[7] = test system: TOV-21G (Ovarian Carcinoma)
In short: as §1

[8] = test system: SNU-1 (Gastric Carcinoma)
In short: as §1

SK-N-DZ (Neuroblastoma) = test system: SK-N-DZ (Neuroblastoma)
In short: as §1

[9] = test system: OCI-M1 (Acute Myeloid Leukemia)
In short: as §1

[10] = test system: NCI-H835 (Other Solid Carcinomas)
In short: as §1

[11] = test system: JURL-MK1 (Chronic Myelogenous Leukemia)
In short: as §1

NCI-H2452 (Mesothelioma) = test system: NCI-H2452 (Mesothelioma)
In short: as §1

[12] = test system: C2BBe1 (Colorectal Carcinoma)
In short: as §1

[13] = test system: OVKATE (Ovarian Carcinoma)
In short: as §1

A375 (Melanoma) = test system: A375 (Melanoma)
In short: as §1

[14] = test system: BT-474 (Breast Carcinoma)
In short: as §1

[15] = test system: NTERA-2-cl-D1 (Other Solid Carcinomas)
In short: as §1

[16] = test system: SCC90 (Head and Neck Carcinoma)
In short: as §1

[17] = test system: NCI-H1975 (Lung Adenocarcinoma)
In short: as §1

Row | Structure (SMILES) | combination Emax [1] | combination Emax [2] | combination Emax [3] | combination Emax [4] | combination Emax [5] | combination Emax [6] | combination Emax [7] | combination Emax [8] | combination Emax (SK-N-DZ (Neuroblastoma)) | combination Emax [9] | combination Emax [10] | combination Emax [11] | combination Emax (NCI-H2452 (Mesothelioma)) | combination Emax [12] | combination Emax [13] | combination Emax (A375 (Melanoma)) | combination Emax [14] | combination Emax [15] | combination Emax [16] | combination Emax [17]
1 | Cn1cnc2c(F)c(Nc3ccc(Br)cc3Cl)c(C(=O)NOCCO)cc21 [Selumetinib] + C=CCn1c(=O)c2cnc(Nc3ccc(N4CCN(C)CC4)cc3)nc2n1-c1cccc(C(C)(C)O)n1 [AZD1775] (first compound max 10 µM, partner max 1 µM) | 1 | 0.779 | 0.534 | 0.514 | 0.281 | 0.979 | 0.702 | 0.766 | 0.971 | 0.956 | 0.512 | 1 | 0.547 | 0.569 | 0.173 | 0.755 | 0.346 | 0.271 | 0.825 | 0.492
2 | Cn1cnc2c(F)c(Nc3ccc(Br)cc3Cl)c(C(=O)NOCCO)cc21 [Selumetinib] + CC(C)n1c(=O)n(C)c2cnc3cc(F)c(-c4ccc(OCCCN5CCCCC5)nc4)cc3c21 [AZD1390] (first compound max 10 µM, 7x7, partner max 0.3 µM) | 0.0871 | 0.405 | 0.402 | 0.0866 | 0.161 | 0.0431 | 0.259 | 0.384 | 0.239 | 0.749 | 0.0782 | 0.973 | 0.262 | 0.351 | 0.179 | 0.684 | 0.0709 | 0.235 | 0.774 | 0.342
3 | COc1cccc(OCCCN)c1-c1cc(Nc2cnc(C#N)cn2)n[nH]1 [Prexasertib] + CCc1c2c(nc3ccc(O)cc13)-c1cc3c(c(=O)n1C2)COC(=O)[C@]3(O)CC [SN-38] (first compound max 1 µM, 7x7, partner max 0.3 µM) | 1 | 0.886 | 0.488 | 0.997 | 0.783 | 1 | 0.852 | 0.953 | 1 | 1 | 0.632 | 1 | 0.895 | 0.708 | 0.258 | 0.962 | 0.244 | 0.981 | 0.952 | 0.861
4 | COc1nnc2ccc(N3CCC(c4ccc(OCCN5CCN(C)C(=O)[C@H]5C)cc4)CC3)nn12 [AZD5153] + CC1(C)CCC(CN2CCN(c3ccc(C(=O)NS(=O)(=O)c4ccc(NCC5CCOCC5)c([N+](=O)[O-])c4)c(Oc4cnc5[nH]ccc5c4)c3)CC2)=C(c2ccc(Cl)cc2)C1 [Venetoclax] (first compound max 1 µM, 7x7, partner max 1 µM) | 0.791 | 0.373 | 0.507 | 0.518 | 0.378 | 1 | 0.623 | 0.645 | 0.694 | 1 | 0.372 | 0.873 | 0.411 | 0.378 | 0.35 | 0.44 | 0.353 | 0.654 | 0.533 | 0.667
5 | Cn1cnc2c(F)c(Nc3ccc(Br)cc3Cl)c(C(=O)NOCCO)cc21 [Selumetinib] + C[C@@H]1COCCN1C2=NC(=NC(=C2)C3(CC3)[S@](=N)(=O)C)C4=C5C=CNC5=NC=C4 [AZD6738] (first compound max 10 µM, 7x7, partner max 10 µM) | 0.974 | 0.627 | 0.483 | 0.814 | 0.477 | 0.953 | 0.809 | 0.79 | 0.986 | 0.984 | 0.19 | 1 | 0.363 | 0.569 | 0.199 | 0.772 | 0.0449 | 0.351 | 0.764 | 0.496
6 | COc1cccc(OCCCN)c1-c1cc(Nc2cnc(C#N)cn2)n[nH]1 [Prexasertib] + CN(C)CCCOc1ccc(-c2ccc3ncc4c(c3c2)n(C2CCOCC2)c(=O)n4C)cn1 [AZD0156] (first compound max 1 µM, 7x7, partner max 1 µM) | 1 | 0.462 | 0.435 | 0.886 | 0.806 | 1 | 0.621 | 0.842 | 1 | 0.951 | 0.366 | 1 | 0.644 | 0.582 | 0.275 | 0.851 | 0.237 | 0.227 | 0.737 | 0.291
